Experimental data taken from patent US20160326558A1, “Process for Stimulating Hyaluronic Acid Production with Ascorbic Acid Derivatives and the Composition Thereof” (CORUM INC., priority 2012, published 2016).
Several values for one entry are separate records, joined by “and”; a condition that tells them apart may be missing. Equal entries are not always repeated. Entries after “also recorded” stand apart in the source; their conditions may differ.

Key:
Assay type in all cases: cell-based
[1] = system: mouse fibroblast (3T3); experiment: Cell viability of mouse fibroblast (Example 1); conditions: concentration larger than 7500 ppm
[2] = system: human fibroblast (Hs68); experiment: Cell viability of human fibroblast (Example 2); conditions: 10000 ppm
[3] = system: mouse fibroblast (3T3); experiment: Stimulating hyaluronic acid production in mouse fibroblast, R&D HA-ELISA (Examples 3 and 5); conditions: for Hyaluronic Acid Content Stimulated, Average / Hyaluronic Acid Content Stimulated, single entries: 72 h, vs negative control = 100%
Description: (§1) Complete medium is used in cell seeding stage. The confluent 3T3 cells are rinsed with sterile D-PBS, and trypsinize all cells and perform cell counting. Then, dilute the cell density to 4E+04/mL and seed 0.5 mL cell liquid (equals to 2E+04 cells) each well in 24 well plates. Incubate 3T3 cells at 37° C., 5% CO2 for about 24 hours. Starvation medium is used in this stage. The 24-hour-cultured 3T3 cells are rinsed with sterile D-PBS and discarded rinse buffer. Controls and testing materials in different concentrations are respectively added into the 3T3 cells in 24 well plates. Then, the 3T3 cells are incubated at 37° C., with 5% CO2 for about 72 hours. After incubating for about 72 hours, transfer some supernatant of cells treated with controls and testing materials into new containers. Centrifuge the supernatants at 2000 rpm for 5˜10 minutes. The hyaluronic acid content of the centrifuged supernatants are respectively determined by Hyaluronan Enzyme-Linked Immunosorbent Assay Kit, and calculated with the following Formula 1. [formula] In this example, we try another brand HA-ELISA kit (R&D; Cat No. DHYAL0) to figure out the reproducibility of the stimulatory effect. Excluding replacing the HA-ELISA kit, the materials and the procedures can be referred to the above Example 1. In this example, we try to figure out whether the stimulatory effect also can be found on ascorbic acid. Excluding replacing the HA-ELISA kit to another brand HA-ELISA kit (R&D; Cat No. DHYAL0) and replacing the testing material to ascorbic acid, the other materials and the procedures can be referred to the above Example 1.

[4] = system: mouse fibroblast (3T3); experiment: Hyaluronic acid content stimulated by 3-O-ethyl ascorbic acid and AA2G in mouse fibroblast (Table 6); conditions: for Hyaluronic Acid Content Stimulated, Average / Hyaluronic Acid Content Stimulated, single entries: vs negative control = 100%
[5] = system: human fibroblast (Hs68); experiment: Stimulating hyaluronic acid production in human fibroblast, R&D HA-ELISA (Example 4); conditions: for Hyaluronic Acid Content Stimulated, Average / Hyaluronic Acid Content Stimulated, single entries: 72 h, vs negative control = 100%
Description: as §1, with “Hs68” for “3T3”, “treating” for “treated”, “2.” for “1.”, “study” for “figure out”, “2.” for “1. In this example, we try to figure out whether the stimulatory effect also can be found on ascorbic acid. Excluding replacing the HA-ELISA kit to another brand HA-ELISA kit (R&D; Cat No. DHYAL0) and replacing the testing material to ascorbic acid, the other materials and the procedures can be referred to the above Example 1.”

[6] = system: human fibroblast (Hs68); experiment: Stimulating hyaluronic acid production in human fibroblast, Echelon HA-ELISA (Example 2); conditions: for Hyaluronic Acid Content Stimulated, Average / Hyaluronic Acid Content Stimulated, single entries: 72 h, vs negative control = 100%
Source text: (§2) Cell Line: Hs68 (BCRC 60038, purchased from Bioresource Collection and Research Center) Complete Medium (as positive control): DMEM medium with 10% Fetal Bovine Serum (DMEM purchased from Corning Incorporated and Caisson Labs; FBS purchased from Caisson Labs) Starvation Medium (as negative control): DMEM medium with 0.1% Fetal Bovine Serum (DMEM purchased from Corning Incorporated and Caisson Labs; FBS purchased from Caisson Labs) Hyaluronan Enzyme-Linked Immunosorbent Assay Kit (HA-ELISA) (Brand: Echelon/Cat No K-1200) Complete medium is used in cell seeding stage. The confluent Hs68 cells are rinsed with sterile D-PBS, and trypsinize all cells and perform cell counting. Then, dilute the cell density to 4E+04/mL and seed 0.5 mL cell liquid (equals to 2E+04 cells) each well in 24 well plates. Incubate Hs68 cells at 37° C., 5% CO2 for about 24 hours. Starvation medium is used in this stage. The 24-hour-cultured Hs68 cells are rinsed with sterile D-PBS and discarded rinse buffer. Controls and testing materials in different concentrations are respectively added into the Hs68 cells in 24 well plates. Then, the Hs68 cells are incubated at 37° C., with 5% CO2 for about 72 hours. After incubating for about 72 hours, transfer some supernatant of cells treating with controls and testing materials into new containers. Centrifuge the supernatants at 2000 rpm for 5˜10 minutes. The hyaluronic acid content of the centrifuged supernatants are respectively determined by Hyaluronan Enzyme-Linked Immunosorbent Assay Kit, and calculated with the following Formula 2. [formula]

[7] = system: mouse fibroblast (3T3); experiment: Stimulating hyaluronic acid production in mouse fibroblast, Echelon HA-ELISA (Example 1)
Source text: as §2, with “3T3” for “Hs68”, “60071,” for “60038,”, “0.1%” for “0.1% Fetal”, “treated” for “treating”, “1.” for “2.”

[8] = 5000 ppm, 72 h, vs negative control = 100%

For `CCOC1=C(O)C(=O)O[C@@H]1[C@@H](O)CO` [3-O-ethyl-ascorbic acid], the cell viability [1] was “inhibited”, the cell viability [2] was “inhibited” and the “Hyaluronic Acid Content Stimulated, Average” value ([3]; 1.25 ppm) was 143.0%. For the same compound, the “Hyaluronic Acid Content Stimulated, single entries” value ([3]; 1.25 ppm) was 100.0% and 156.8% and 172.0%, the “Hyaluronic Acid Content Stimulated, Average” value ([3]; 2.5 ppm) was 145.9% and the “Hyaluronic Acid Content Stimulated, single entries” value ([3]; 2.5 ppm) was 119.7% and 135.2% and 182.8%. The “Hyaluronic Acid Content Stimulated, Average” value ([3]; 5 ppm) was 137.1%, the “Hyaluronic Acid Content Stimulated, Average” value ([3]; 7.5 ppm) was 135.9% and the “Hyaluronic Acid Content Stimulated, single entries” value ([3]; 7.5 ppm) was 115.9% and 143.8% and 148.1%. The “Hyaluronic Acid Content Stimulated, Average” value ([3]; 10 ppm, Table 3) was 147.1%, the “Hyaluronic Acid Content Stimulated, single entries” value ([3]; 10 ppm, Table 3) was 101.0% and 158.1% and 182.2% and the “Hyaluronic Acid Content Stimulated, Average” value ([3]; 100 ppm, Table 3) was 171.2%. The “Hyaluronic Acid Content Stimulated, single entries” value ([3]; 100 ppm, Table 3) was 166.8% and 155.7% and 191.2%, the “Hyaluronic Acid Content Stimulated, Average” value ([3]; 1000 ppm) was 177.8% and the “Hyaluronic Acid Content Stimulated, Average” value ([3]; 2500 ppm) was 159.3%. For the same compound, the “Hyaluronic Acid Content Stimulated, single entries” value ([3]; 2500 ppm) was 148.7% and 176.3% and 152.8%, the “stimulated hyaluronic acid production, dose dependence (in words)” value ([3]; 5000-5 ppm) was “dose-dependently” and the “Hyaluronic Acid Content Stimulated, Average” value ([3]; 5000 ppm) was 184.2%. For the same compound, the “Hyaluronic Acid Content Stimulated, single entries” value ([3]; 5000 ppm) was 131.8% and 180.4%, the “Hyaluronic Acid Content Stimulated, Average” value ([3]; 7500 ppm) was 143.8% and the “Hyaluronic Acid Content Stimulated, single entries” value ([3]; 7500 ppm) was 119.9% and 130.8% and 180.7%. The “Hyaluronic Acid Content Stimulated, Average” value ([3]; 10000 ppm) was 109.0%, the “Hyaluronic Acid Content Stimulated, Average” value ([4]; 10 ppm) was 122% and the “Hyaluronic Acid Content Stimulated, single entries” value ([4]; 10 ppm) was 125% and 122% and 118%. The “Hyaluronic Acid Content Stimulated, Average” value ([4]; 100 ppm) was 138%, the “Hyaluronic Acid Content Stimulated, single entries” value ([4]; 100 ppm) was 115% and 161% and 138% and the “Hyaluronic Acid Content Stimulated, Average” value ([4]; 1000 ppm) was 171%. The “Hyaluronic Acid Content Stimulated, single entries” value ([4]; 1000 ppm) was 180% and 165% and 168%, the “stimulatory of producing hyaluronic acid (in words)” value ([4]; Table 6, 10-1000 ppm) was “helpful to the stimulatory of producing hyaluronic acid” and the “Hyaluronic Acid Content Stimulated, Average” value ([5]; 1.25 ppm) was 112.6%. The “Hyaluronic Acid Content Stimulated, single entries” value ([5]; 1.25 ppm) was 102.1% and 126.8% and 102.4% and 119.0%, the “Hyaluronic Acid Content Stimulated, Average” value ([5]; 2.5 ppm) was 136.7% and the “Hyaluronic Acid Content Stimulated, single entries” value ([5]; 2.5 ppm) was 149.7% and 125.3% and 111.4% and 160.5%. The “Hyaluronic Acid Content Stimulated, Average” value ([5]; 5 ppm) was 123.1%, the “Hyaluronic Acid Content Stimulated, single entries” value ([5]; 5 ppm) was 110.6% and 110.9% and 103.8% and 167.0% and the “Hyaluronic Acid Content Stimulated, Average” value ([5]; 7.5 ppm) was 134.0%. The “Hyaluronic Acid Content Stimulated, Average” value ([5]; 10 ppm) was 97.7%, the “Hyaluronic Acid Content Stimulated, single entries” value ([5]; 10 ppm) was 89.1% and 101.2% and 91.2% and 109.5% and the “Hyaluronic Acid Content Stimulated, Average” value ([5]; 100 ppm) was 121.9%. For the same compound, the “Hyaluronic Acid Content Stimulated, Average” value ([5]; 1000 ppm) was 133.9%, the “Hyaluronic Acid Content Stimulated, single entries” value ([5]; 1000 ppm) was 125.4% and 134.8% and 122.6% and 152.7% and the “Hyaluronic Acid Content Stimulated, Average” value ([5]; 2500 ppm) was 103.6%. The “Hyaluronic Acid Content Stimulated, single entries” value ([5]; 2500 ppm) was 99.2% and 96.7% and 78.7% and 140.0%, the “Hyaluronic Acid Content Stimulated, Average” value ([5]; 5000 ppm) was 91.0% and the “Hyaluronic Acid Content Stimulated, single entries” value ([5]; 5000 ppm) was 110.0% and 70.6% and 103.2% and 80.3%. For the same compound, the “Hyaluronic Acid Content Stimulated, Average” value ([5]; 7500 ppm) was 73.1%, the “Hyaluronic Acid Content Stimulated, Average” value ([5]; 10000 ppm) was 40.7% and the “Hyaluronic Acid Content Stimulated, single entries” value ([5]; 10000 ppm) was 50.9% and 32.1% and 37.2% and 42.4%. The “stimulated hyaluronic acid production, dose dependence (in words)” value ([5]; about 1000-10 ppm) was “dose-dependently”, the “Hyaluronic Acid Content Stimulated, Average” value ([6]; 10 ppm) was 107.2% and the “Hyaluronic Acid Content Stimulated, single entries” value ([6]; 10 ppm) was 92.7% and 123.3% and 105.7%. The “Hyaluronic Acid Content Stimulated, Average” value ([6]; 100 ppm) was 148.8%, the “Hyaluronic Acid Content Stimulated, single entries” value ([6]; 100 ppm) was 200.9% and 130.3% and 115.1% and the “stimulated hyaluronic acid production, dose dependence (in words)” value ([6]; 1000-10 ppm) was “dose-dependently”. For the same compound, the “Hyaluronic Acid Content Stimulated, Average” value ([6]; 1000 ppm) was 182.7%, the “Hyaluronic Acid Content Stimulated, single entries” value ([6]; 1000 ppm) was 170.1% and 172.6% and the “Hyaluronic Acid Content Stimulated, Average” value ([6]; 10000 ppm) was 32.5%. The “stimulated hyaluronic acid production (in words)” value ([7]; 10-5000 ppm) was “efficiently increased”, the “Hyaluronic Acid Content Stimulated, Average” value ([7]; 10 ppm, 72 h, vs negative control = 100%) was 164.6% and the “Hyaluronic Acid Content Stimulated, Average” value ([7]; 100 ppm, 72 h, vs negative control = 100%) was 133.1%. The “Hyaluronic Acid Content Stimulated, Average” value ([7]; 1000 ppm, 72 h, vs negative control = 100%) was 148.9%, the “Hyaluronic Acid Content Stimulated, Average” value ([7]; 2500 ppm, 72 h, vs negative control = 100%) was 165.0% and the “Hyaluronic Acid Content Stimulated, Average” value [7, 8] was 149.0%. The “Hyaluronic Acid Content Stimulated, single entries” value [7, 8] was 110.3% and 214.1% and 161.9% and 109.6%, the “Hyaluronic Acid Content Stimulated, Average” value ([7]; 7500 ppm, 72 h, vs negative control = 100%) was 91.0% and the “Hyaluronic Acid Content Stimulated, Average” value ([7]; 10000 ppm, 72 h, vs negative control = 100%) was 89.4%.
With `O=C1O[C@H]([C@@H](O)CO)C(O)=C1O` [Ascorbic Acid, ascorbic acid] the “stimulation of hyaluronic acid production (in words)” value ([3]; 2-100 ppm, comparing to the negative control) was “can NOT stimulate hyaluronic acid production; also recorded: cannot be helpful”, the “Hyaluronic Acid Content Stimulated, Average” value ([3]; 2 ppm, Table 5) was 94% and the “Hyaluronic Acid Content Stimulated, single entries” value ([3]; 2 ppm, Table 5) was 99% and 64% and 119%. For the same compound, the “Hyaluronic Acid Content Stimulated, Average” value ([3]; 10 ppm, Table 5) was 101%, the “Hyaluronic Acid Content Stimulated, single entries” value ([3]; 10 ppm, Table 5) was 93% and 108% and 101% and the “Hyaluronic Acid Content Stimulated, Average” value ([3]; 50 ppm, Table 5) was 102%. The “Hyaluronic Acid Content Stimulated, single entries” value ([3]; 50 ppm, Table 5) was 105% and 100% and 102%, the “Hyaluronic Acid Content Stimulated, Average” value ([3]; 100 ppm, Table 5) was 91% and the “Hyaluronic Acid Content Stimulated, single entries” value ([3]; 100 ppm, Table 5) was 87% and 93% and 94%.
